{"source": "PubChem BioAssay (NCI)", "note": "Where “and” joins values, the source holds several entries; their conditions need not be identical. Identical values can stand only once.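 Briefly, cells in 96-well plates were exposed to five compound concentrations for 48 h, and endpoints were estimated by linear interpolation. Here, GI50 denotes the concentration required for 50% inhibition of growth. TGI is the concentration that stops growth completely.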"}
{"system": "MDA-MB-468 breast", "assay": "inhibition of tumour cell growth, NCI panel, 48 h"}
{"smiles": "Cc1ccc(C2CC(c3ccc(Nc4ccnc5cc(Cl)ccc45)cc3)=NN2C=O)cc1", "note": "(configuration not stated)", "GI50": "1.51 µM", "TGI": "> 100 µM"}
{"smiles": "COc1ccc(C2=Nn3c(nnc3-n3nc(C)cc3C)SC2)cc1", "GI50": "0.14 µM", "TGI": "> 100 µM"}
{"smiles": "CN(C)c1ccc(-c2ccc(-c3ccc(C(=N)N)cn3)o2)cc1", "GI50": "1.39 µM", "TGI": "3.05 µM"}
{"smiles": "C=CC(=O)Nc1cc2c(Nc3ccc(F)c(Cl)c3)ncnc2cc1C#CC(C)(C)N1CCN(C)CC1", "GI50": "0.00795 µM", "TGI": "0.401 µM"}
{"smiles": "COc1cc(NC2CCCCC2O)c2nc(-c3ccc(Cl)cc3)ccc2c1", "note": "(configuration not stated)", "GI50": "7.48 µM", "TGI": "98.4 µM"}
{"smiles": "CCOC(=O)c1c(CN2CCN(C)CC2)nc2ccc(Cl)cc2c1-c1ccccc1", "GI50": "1.8 µM", "TGI": "4.43 µM"}
{"smiles": "C#C[C@]1(O)CC[C@H]2[C@@H]3CC=C4c5nc(N)sc5CC[C@]4(C)[C@H]3CC[C@@]21C", "GI50": "2.52 µM", "TGI": "7.03 µM"}
{"smiles": "O=C1Nc2ccc3c(c2/C1=C\\c1cc2c(cc1Br)OCO2)OCO3", "GI50": "0.295 µM", "TGI": "0.978 µM"}
{"smiles": "NC(=O)/C(=C/n1cnc(-c2cc(C(F)(F)F)cc(C(F)(F)F)c2)n1)c1cncnc1", "GI50": "0.373 µM", "TGI": "3.01 µM"}
{"smiles": "O=CN1N=C(c2cccc(Nc3ccnc4cc(Cl)ccc34)c2)CC1c1ccc(Cl)cc1", "note": "(configuration not stated)", "GI50": "0.422 µM", "TGI": "3.17 µM"}
{"smiles": "CCOC(=O)/C(=C\\c1ccc2ccccc2c1)P(=O)(OCC)OCC", "GI50": "1.9 µM", "TGI": "3.83 µM"}
{"smiles": "C[C@@H]1CCc2ncc(F)cc2[C@H]2CCCN2c2ccn3ncc(c3n2)C(=O)N1", "GI50": "76.4 µM", "TGI": "> 100 µM"}
{"smiles": "CS(=O)(=O)Nc1cc(-c2ccc3ncnc(Nc4cccc(Cl)c4)c3c2)cnc1Cl", "GI50": "0.145 µM", "TGI": "0.59 µM"}
{"smiles": "CC(C)OP(=O)(O)c1ncc(-c2ccc(C(F)(F)F)cc2)c(NC2CCCCCC2)n1", "GI50": "11.2 µM", "TGI": "> 100 µM"}
{"smiles": "CCc1ccc2c(c1)N(CCO)C1=C(C(=O)OC1)C2c1cc(OC)c(OC)c(OC)c1", "note": "(configuration not stated)", "GI50": "0.0897 µM", "TGI": "0.347 µM"}
{"smiles": "COc1ccc(-c2cc(/C=C/C(=O)c3ccc(N)cc3)[nH]n2)cc1", "GI50": "0.43 µM", "TGI": "2.09 µM"}
{"smiles": "CCn1c(-c2nonc2N)nc2cnc(Oc3cccc(NC(=O)c4ccc(N(C)C)cc4)c3)cc21", "GI50": "10.7 µM", "TGI": "> 25 µM"}
{"smiles": "COc1cc2c3cc1Oc1c(OC)c(OC)cc4c1C(Cc1ccc(O)c(c1)Oc1ccc(cc1)CC3N(C)CC2)N(C)CC4", "note": "(configuration not stated)", "GI50": "8.21 µM", "TGI": "23.1 µM"}
{"smiles": "COc1cc(-c2nn(-c3cccc(NC(=O)CCNc4ccc(N5CCOCC5)cc4)c3)cc2-c2ccncc2)ccc1Cl", "GI50": "2.01 µM", "TGI": "22.9 µM"}
{"smiles": "CN1CC[C@H](c2c(O)cc(O)c3c(=O)cc(-c4ccccc4Cl)oc23)[C@H](O)C1", "GI50": "0.0718 µM", "TGI": "0.269 µM"}
{"smiles": "COc1ccc(/C=C/C(=O)c2cc3c(N)c(C(=O)Nc4ccc(OC)cc4)sc3nc2C)cc1", "GI50": "0.135 µM", "TGI": "> 50 µM"}
{"smiles": "CCOc1ccc2cc(-c3nn(CC4CCNCC4)c4ncnc(N)c34)ccc2c1", "GI50": "14.3 µM", "TGI": "30.2 µM"}
{"smiles": "CCOC(=O)[C@@H]1CSC(CC)=C(C(=O)O)N1", "GI50": "> 100 µM", "TGI": "> 100 µM"}
{"smiles": "COc1cccc(-c2nc3sccn3c2-c2ccnc(NCCCNS(=O)(=O)c3ccccc3)c2)c1", "GI50": "2.47 µM", "TGI": "7.83 µM"}
{"smiles": "O=c1[nH]cnc2n[nH]nc12", "GI50": "1.31 µM", "TGI": "12.7 µM"}
{"smiles": "COc1cc(/C=C2\\SC(N3CCCCC3)=NC2=O)ccc1OCCCCCCOc1ccc(/C=C2\\SC(N3CCCCC3)=NC2=O)cc1OC", "GI50": "10.3 µM", "TGI": "37.2 µM"}
{"smiles": "CCOC(=O)c1c(NC(=O)c2ccc(Cl)cc2)sc2c(CN(C)C)c(O)ccc12", "GI50": "3.48 µM", "TGI": "18.6 µM"}
{"smiles": "Cc1cc(NN=C(c2ccc(O)cc2)c2ccc(O)cc2)c([N+](=O)[O-])cc1[N+](=O)[O-]", "GI50": "4.91 µM", "TGI": "36.7 µM"}
{"smiles": "CC[C@H]1OC(=O)[C@H](C)[C@@H](O[C@H]2C[C@@](C)(OC)[C@@H](O)[C@H](C)O2)[C@H](C)[C@@H](O[C@@H]2O[C@H](C)C[C@H](N(C)C)[C@H]2O)[C@](C)(OC)C/C(C)=C2/O[C@@]1(C)C=C2C", "GI50": "1.82 µM", "TGI": "3.5 µM"}
{"smiles": "COc1ccc2c(c1OC)O/C(=C\\c1ncc([N+](=O)[O-])n1C)C2=O", "GI50": "2.51 µM", "TGI": "8.23 µM"}
{"smiles": "CC(O)[C@H](NC(=O)N[C@@H](CC(N)=O)c1nc(N2CCNCC2)no1)C(=O)O", "note": "(some centres not stated)", "GI50": "> 100 µM", "TGI": "> 100 µM"}
{"smiles": "CCCCCCCCCCCCCCCC[n+]1ccccc1", "GI50": "0.104 µM and 0.194 µM", "TGI": "0.428 µM and 0.793 µM"}
{"smiles": "COc1cc(-c2nn(-c3cccc(NC(=O)CCN4CCN(c5ccccc5)CC4)c3)cc2-c2ccncc2)ccc1Cl", "GI50": "3.03 µM", "TGI": "51.4 µM"}
{"smiles": "COc1ccc(C(O)c2cc3c(N)c(C(=O)Nc4cccc(Br)c4C)sc3nc2C)cc1", "note": "(configuration not stated)", "GI50": "0.125 µM", "TGI": "19.1 µM"}
{"smiles": "COc1ccc2c(c1)C(=O)c1c-2c(OCCN(C)C)nc2cc(OC)c(OC)cc12", "GI50": "3.95 µM", "TGI": "19 µM"}
{"smiles": "CCO/C=N/C1=C(C#N)C(c2ccc(OC)cc2)c2sc3c(CC)cccc3c2O1", "note": "(configuration not stated)", "GI50": "2.5 µM", "TGI": "10.3 µM"}
{"smiles": "CC1(C)N=C(N)N=C(N)N1c1cccc(CCc2ccccc2)c1", "GI50": "0.0745 µM", "TGI": "2.51 µM"}
{"smiles": "CC(=O)Oc1cc2cnc3c4cc(OC(C)=O)c(OC(C)=O)cc4ccc3c2cc1OC(C)=O", "GI50": "1.2 µM", "TGI": "4.44 µM"}
{"smiles": "COc1cc2cc(Oc3cccc(NC(=O)Nc4cc(C(F)(F)F)cc(C(F)(F)F)c4)c3)c(C)nc2cc1OC", "GI50": "1.08 µM", "TGI": "3.96 µM"}
{"smiles": "COc1cc2ncnc(Oc3cccc(NC(=O)Nc4cc(C(C)(C)C(F)(F)F)on4)c3)c2cc1OC", "GI50": "1.04 µM and 1.26 µM", "TGI": "6.01 µM and 6.4 µM"}
{"smiles": "O=[N+]([O-])/C=C/c1ccc(Cl)cc1[N+](=O)[O-]", "GI50": "1.92 µM", "TGI": "3.69 µM"}
